# In ChEMBL document CHEMBL5465560, “Selectivity Literature for EUbOPEN Chemogenomic Library” (2024):
# Assays:
# [1] = biological target: Tyrosine-protein kinase Lyn (Homo sapiens, UniProt P07948); settings: at 10 µM
# [2] = biological target: AP2-associated protein kinase 1 (Homo sapiens, UniProt Q2M2I8); assay: Selectivity interaction (Kinase panel (DSF assay)) EUB0001559a AAK1
# [3] = biological target: T1, Serine/threonine-protein kinase 17B (Homo sapiens) (UniProt O94768); assay: Selectivity interaction (KinomeScan (DiscoverX)) EUB0000655a STK17B; settings: at 10 µM
# T1 sequence (whole entry): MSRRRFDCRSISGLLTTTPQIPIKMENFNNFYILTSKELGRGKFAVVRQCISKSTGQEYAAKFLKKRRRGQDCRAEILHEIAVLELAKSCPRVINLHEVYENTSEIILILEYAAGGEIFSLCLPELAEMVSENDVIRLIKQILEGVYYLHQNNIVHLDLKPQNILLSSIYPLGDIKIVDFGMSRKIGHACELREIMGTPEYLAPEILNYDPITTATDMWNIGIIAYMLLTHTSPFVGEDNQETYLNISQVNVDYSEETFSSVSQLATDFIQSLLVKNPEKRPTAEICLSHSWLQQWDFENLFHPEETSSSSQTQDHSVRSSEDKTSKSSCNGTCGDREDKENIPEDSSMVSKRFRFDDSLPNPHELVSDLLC
# [4] = biological target: Serine/threonine-protein kinase tousled-like 2 (Homo sapiens) (UniProt Q86UE8); assay: Selectivity interaction (KinomeScan (DiscoverX)) EUB0000607a TLK2; settings: at 10 µM
# [5] = biological target: Proto-oncogene tyrosine-protein kinase Src (Homo sapiens, UniProt P12931); assay: Selectivity interaction (Kinase panel (DSF assay)) EUB0001558a SRC
# [6] = biological target: RAF proto-oncogene serine/threonine-protein kinase (Homo sapiens) (UniProt P04049); assay: Selectivity interaction (Kinase panel (KiNativ target engagement assay in Jurkat cells)) EUB0001635a RAF1; assay type: cell-based; settings: Selectivity number of off-targets 0.0, Selectivity number of targets 233.0, Source Knowledge https://www.sciencedirect.com/science/article/pii/S2451945619300674?via%3Dihub, at 1 µM
# [7] = biological target: Serine/threonine-protein kinase Nek6 (Homo sapiens) (UniProt Q9HC98); assay: Selectivity interaction (ActivX KiNativ screen (kinase selectivity in THP-1 cell lysates)) EUB0000639a NEK6; assay type: subcellular; settings: lysate
# [8] = biological target: Serine/threonine-protein kinase MARK2 (Homo sapiens) (UniProt Q7KZI7); assay: Selectivity interaction (ActivX KiNativ screen (kinase selectivity in THP-1 cell lysates)) EUB0000639a MARK2; assay type: subcellular; settings: lysate, at 1 µM
# [9] = biological target: T2, Interleukin-1 receptor-associated kinase 3 (Homo sapiens) (UniProt Q9Y616); assay: Selectivity interaction (ActivX KiNativ screen (kinase selectivity in THP-1 cell lysates)) EUB0000639a IRAK3; assay type: subcellular; settings: lysate, at 0.2 µM
# T2 sequence (whole entry): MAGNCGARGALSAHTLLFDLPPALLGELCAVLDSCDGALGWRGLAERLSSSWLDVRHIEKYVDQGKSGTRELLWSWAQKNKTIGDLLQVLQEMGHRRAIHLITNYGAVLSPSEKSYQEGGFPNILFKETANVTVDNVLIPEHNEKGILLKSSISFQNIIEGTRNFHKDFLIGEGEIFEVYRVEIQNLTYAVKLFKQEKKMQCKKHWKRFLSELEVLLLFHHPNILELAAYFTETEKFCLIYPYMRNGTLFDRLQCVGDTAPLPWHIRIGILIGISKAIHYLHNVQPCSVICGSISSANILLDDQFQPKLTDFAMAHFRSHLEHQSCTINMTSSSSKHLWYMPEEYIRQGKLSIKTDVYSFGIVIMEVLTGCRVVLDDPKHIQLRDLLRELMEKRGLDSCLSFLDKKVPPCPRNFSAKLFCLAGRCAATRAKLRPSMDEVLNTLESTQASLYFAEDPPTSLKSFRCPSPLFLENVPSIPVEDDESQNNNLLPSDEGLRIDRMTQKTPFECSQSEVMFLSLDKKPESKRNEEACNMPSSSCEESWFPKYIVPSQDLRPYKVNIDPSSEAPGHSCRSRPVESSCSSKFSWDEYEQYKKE
# [10] = biological target: Hepatocyte growth factor receptor (Homo sapiens, UniProt P08581); assay: (§1) Selectivity interaction (KinomeScan (DiscoverX)) EUB0000229b MET; settings: at 10 µM
# [11] = tested on: Hepatocyte growth factor receptor (Homo sapiens), P08581 [M1250T]; assay: as §1; settings: at 1 µM
# [12] = tested on: Hepatocyte growth factor receptor (Homo sapiens), P08581 [Y1235D]; assay: as §1; settings: at 1 µM
# [13] = biological target: Dual specificity protein kinase CLK2 (Homo sapiens, UniProt P49760); assay: Selectivity interaction (KinomeScan (DiscoverX)) EUB0000229b CLK2; settings: at 10 µM
# [14] = biological target: Calcium/calmodulin-dependent protein kinase type 1 (Homo sapiens) (UniProt Q14012); assay: Selectivity interaction (KinomeScan (DiscoverX)) EUB0000092b CAMK1; settings: at 10 µM
# [15] = biological target: T3, Interleukin-1 receptor-associated kinase 4 (Homo sapiens, UniProt Q9NWZ3); assay: Selectivity interaction (Kinase counterscreening (biochemical assay)) EUB0000604a IRAK4
# T3 sequence (Q9NWZ3 whole entry): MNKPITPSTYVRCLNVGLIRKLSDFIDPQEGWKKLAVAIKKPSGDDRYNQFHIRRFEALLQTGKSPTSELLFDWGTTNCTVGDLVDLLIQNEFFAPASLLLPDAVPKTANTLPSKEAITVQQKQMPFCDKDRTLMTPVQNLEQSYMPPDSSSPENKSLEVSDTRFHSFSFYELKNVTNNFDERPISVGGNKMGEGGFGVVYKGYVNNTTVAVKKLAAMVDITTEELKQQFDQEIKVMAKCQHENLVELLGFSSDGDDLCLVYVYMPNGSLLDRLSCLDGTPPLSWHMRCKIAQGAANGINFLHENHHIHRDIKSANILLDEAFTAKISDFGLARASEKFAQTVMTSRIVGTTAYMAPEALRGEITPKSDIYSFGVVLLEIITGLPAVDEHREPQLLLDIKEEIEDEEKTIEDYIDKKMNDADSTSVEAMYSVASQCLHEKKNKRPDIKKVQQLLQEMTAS
# Chain of Serine/threonine-protein kinase Nek6 (Homo sapiens) (Q9HC98 whole entry): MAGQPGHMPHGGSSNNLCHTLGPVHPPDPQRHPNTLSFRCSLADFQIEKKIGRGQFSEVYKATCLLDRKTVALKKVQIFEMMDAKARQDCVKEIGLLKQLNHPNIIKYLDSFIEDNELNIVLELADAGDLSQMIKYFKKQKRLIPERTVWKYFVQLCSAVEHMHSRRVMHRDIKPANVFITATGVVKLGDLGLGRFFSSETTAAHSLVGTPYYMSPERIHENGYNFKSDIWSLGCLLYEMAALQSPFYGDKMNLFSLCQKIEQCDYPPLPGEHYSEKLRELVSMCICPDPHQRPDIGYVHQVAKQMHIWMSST
# Chain of Hepatocyte growth factor receptor (Homo sapiens), P08581 [M1250T] (P08581 whole entry M1250T): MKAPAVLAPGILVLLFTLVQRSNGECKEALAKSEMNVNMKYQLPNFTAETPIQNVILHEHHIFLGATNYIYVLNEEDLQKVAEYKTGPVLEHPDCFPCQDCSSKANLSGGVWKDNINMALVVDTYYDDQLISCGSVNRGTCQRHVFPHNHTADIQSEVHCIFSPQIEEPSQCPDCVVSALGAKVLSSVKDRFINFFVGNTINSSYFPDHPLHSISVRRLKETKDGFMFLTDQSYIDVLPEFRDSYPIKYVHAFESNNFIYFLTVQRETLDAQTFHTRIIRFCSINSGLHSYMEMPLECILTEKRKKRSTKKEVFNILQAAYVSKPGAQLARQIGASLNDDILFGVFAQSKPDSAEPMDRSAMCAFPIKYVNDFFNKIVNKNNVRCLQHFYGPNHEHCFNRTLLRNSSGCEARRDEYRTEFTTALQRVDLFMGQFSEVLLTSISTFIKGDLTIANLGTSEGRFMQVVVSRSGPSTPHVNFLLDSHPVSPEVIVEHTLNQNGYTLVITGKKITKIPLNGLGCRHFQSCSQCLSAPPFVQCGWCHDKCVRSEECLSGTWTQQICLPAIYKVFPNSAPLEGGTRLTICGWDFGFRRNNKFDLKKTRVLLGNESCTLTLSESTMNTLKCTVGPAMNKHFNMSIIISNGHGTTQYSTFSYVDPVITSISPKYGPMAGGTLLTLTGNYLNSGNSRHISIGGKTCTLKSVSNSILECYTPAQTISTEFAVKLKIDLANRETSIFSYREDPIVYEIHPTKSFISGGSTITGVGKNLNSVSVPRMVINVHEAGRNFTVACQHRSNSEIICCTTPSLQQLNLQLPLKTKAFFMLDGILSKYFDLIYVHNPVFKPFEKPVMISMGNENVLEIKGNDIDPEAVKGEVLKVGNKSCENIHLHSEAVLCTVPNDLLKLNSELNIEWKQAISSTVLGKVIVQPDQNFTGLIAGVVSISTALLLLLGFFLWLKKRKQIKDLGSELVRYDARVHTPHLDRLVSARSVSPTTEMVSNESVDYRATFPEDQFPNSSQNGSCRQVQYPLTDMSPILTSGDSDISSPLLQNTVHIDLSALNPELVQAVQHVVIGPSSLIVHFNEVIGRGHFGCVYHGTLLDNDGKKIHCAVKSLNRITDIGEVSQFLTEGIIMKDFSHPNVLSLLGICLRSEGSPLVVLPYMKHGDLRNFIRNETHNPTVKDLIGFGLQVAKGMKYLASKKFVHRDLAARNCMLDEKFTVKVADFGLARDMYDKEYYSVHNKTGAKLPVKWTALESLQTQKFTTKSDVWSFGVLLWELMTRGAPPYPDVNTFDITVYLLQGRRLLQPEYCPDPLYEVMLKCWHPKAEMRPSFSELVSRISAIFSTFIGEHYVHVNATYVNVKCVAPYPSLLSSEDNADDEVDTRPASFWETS
# Chain of Dual specificity protein kinase CLK2 (P49760 whole entry, looked up): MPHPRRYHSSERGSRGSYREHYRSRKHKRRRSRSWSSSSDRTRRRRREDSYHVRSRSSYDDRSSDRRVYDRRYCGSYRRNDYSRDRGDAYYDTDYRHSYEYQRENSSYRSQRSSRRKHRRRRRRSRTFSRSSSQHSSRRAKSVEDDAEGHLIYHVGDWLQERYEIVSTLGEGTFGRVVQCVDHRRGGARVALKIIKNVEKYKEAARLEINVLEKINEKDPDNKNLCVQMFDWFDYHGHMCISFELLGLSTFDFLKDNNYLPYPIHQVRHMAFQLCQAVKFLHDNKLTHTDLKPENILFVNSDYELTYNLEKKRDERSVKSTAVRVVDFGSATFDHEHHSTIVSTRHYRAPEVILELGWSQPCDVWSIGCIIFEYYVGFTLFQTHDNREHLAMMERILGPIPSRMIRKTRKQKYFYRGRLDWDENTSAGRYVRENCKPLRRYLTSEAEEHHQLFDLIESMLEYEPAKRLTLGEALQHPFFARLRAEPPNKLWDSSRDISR
# Chain of Proto-oncogene tyrosine-protein kinase Src (P12931 2-536 limits assumed): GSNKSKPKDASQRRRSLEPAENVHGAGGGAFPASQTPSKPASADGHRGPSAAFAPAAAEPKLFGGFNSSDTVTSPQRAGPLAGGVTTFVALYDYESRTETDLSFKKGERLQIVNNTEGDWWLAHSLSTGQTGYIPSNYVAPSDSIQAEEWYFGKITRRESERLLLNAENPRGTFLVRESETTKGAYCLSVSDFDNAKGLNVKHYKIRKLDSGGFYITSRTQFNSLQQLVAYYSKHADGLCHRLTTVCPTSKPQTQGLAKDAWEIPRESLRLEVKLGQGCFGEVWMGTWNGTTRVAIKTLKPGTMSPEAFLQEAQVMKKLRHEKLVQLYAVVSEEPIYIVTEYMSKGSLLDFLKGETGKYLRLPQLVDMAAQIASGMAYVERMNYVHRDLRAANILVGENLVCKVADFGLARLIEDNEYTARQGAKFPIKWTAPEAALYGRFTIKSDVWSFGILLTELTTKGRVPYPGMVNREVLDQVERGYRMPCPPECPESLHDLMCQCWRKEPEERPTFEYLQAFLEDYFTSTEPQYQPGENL
# Chain of Calcium/calmodulin-dependent protein kinase type 1 (Homo sapiens) (Q14012 whole entry, looked up): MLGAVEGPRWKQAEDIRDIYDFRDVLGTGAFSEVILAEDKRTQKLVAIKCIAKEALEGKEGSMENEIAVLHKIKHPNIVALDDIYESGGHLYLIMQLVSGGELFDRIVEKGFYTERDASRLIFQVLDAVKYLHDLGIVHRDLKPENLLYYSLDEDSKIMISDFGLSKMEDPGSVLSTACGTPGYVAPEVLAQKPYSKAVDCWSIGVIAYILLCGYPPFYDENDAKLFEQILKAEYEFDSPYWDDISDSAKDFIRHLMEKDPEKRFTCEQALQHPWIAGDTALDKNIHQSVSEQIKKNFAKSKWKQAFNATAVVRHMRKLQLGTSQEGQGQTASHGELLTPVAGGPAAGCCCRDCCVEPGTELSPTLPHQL
# Chain of Serine/threonine-protein kinase MARK2 (Homo sapiens) (Q7KZI7 whole entry): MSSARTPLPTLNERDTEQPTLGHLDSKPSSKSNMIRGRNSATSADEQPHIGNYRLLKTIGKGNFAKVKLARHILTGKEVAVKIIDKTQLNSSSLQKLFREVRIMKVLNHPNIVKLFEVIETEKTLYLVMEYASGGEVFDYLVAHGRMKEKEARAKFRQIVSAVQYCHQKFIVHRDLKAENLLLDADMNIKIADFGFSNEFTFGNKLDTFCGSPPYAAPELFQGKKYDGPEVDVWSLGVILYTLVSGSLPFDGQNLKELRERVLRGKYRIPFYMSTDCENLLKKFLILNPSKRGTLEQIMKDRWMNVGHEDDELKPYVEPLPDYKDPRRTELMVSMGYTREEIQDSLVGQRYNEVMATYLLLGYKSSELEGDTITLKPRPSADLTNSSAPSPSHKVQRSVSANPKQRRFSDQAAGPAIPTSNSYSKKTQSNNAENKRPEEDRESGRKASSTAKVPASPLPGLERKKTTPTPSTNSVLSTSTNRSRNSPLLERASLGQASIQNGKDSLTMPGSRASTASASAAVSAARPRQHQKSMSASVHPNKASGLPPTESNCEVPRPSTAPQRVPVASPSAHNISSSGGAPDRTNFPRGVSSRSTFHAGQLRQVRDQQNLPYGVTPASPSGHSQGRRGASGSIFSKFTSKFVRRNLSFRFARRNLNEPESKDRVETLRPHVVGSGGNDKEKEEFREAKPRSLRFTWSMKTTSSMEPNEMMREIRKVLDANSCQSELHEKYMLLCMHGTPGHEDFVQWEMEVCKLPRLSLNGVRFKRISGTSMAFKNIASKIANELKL
# Chain of AP2-associated protein kinase 1 (Q2M2I8 whole entry, looked up): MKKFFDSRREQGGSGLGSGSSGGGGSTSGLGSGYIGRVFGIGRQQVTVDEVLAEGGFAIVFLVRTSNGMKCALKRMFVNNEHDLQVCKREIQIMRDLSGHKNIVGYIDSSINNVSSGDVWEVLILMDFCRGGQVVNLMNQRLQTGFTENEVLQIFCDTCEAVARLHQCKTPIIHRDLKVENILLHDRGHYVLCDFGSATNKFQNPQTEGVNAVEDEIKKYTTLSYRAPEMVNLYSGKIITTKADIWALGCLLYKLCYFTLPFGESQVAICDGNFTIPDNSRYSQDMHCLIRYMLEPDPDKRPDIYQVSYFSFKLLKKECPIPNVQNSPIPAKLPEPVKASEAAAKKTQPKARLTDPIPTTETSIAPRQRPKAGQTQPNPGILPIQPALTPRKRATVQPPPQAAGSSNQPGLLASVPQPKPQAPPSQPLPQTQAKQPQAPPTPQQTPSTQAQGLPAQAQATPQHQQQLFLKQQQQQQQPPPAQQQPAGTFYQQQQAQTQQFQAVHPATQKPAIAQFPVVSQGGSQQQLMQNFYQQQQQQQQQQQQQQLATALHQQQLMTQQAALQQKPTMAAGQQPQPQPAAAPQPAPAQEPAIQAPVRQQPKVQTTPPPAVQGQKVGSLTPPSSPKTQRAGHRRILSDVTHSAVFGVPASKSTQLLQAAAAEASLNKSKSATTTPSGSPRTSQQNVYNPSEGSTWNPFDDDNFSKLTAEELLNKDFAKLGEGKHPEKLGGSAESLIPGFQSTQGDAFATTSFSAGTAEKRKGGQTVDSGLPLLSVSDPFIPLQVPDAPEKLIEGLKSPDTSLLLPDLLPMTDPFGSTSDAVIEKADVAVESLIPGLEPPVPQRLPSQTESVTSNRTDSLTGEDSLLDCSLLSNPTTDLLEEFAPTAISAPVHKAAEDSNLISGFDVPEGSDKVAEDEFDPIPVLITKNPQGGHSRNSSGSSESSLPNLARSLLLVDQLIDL
smiles,measurement,setting,value
CCN(CC)CCCCNc1ncc2cc(-c3cc(OC)cc(OC)c3)c(NC(=O)NC(C)(C)C)nc2n1,% of control,[1],100%
CN(C(=O)c1cnn2cccnc12)c1cc2c(cc1N1CCOCC1)C(=O)N(C[C@@H](F)C(C)(C)O)C2,dTM,[2],0.3 K
CN(C)CCOc1ccc(-c2nc(-c3ccncc3)c(-c3ccc4c(c3)CC/C4=N\O)[nH]2)cc1,% of control,[3],87%
CNC(=O)Nc1ccc(-c2nc(N3CC4CCC(C3)O4)c3cnn(C4CCC5(CC4)OCCO5)c3n2)cc1,% of control,[4],100%
CC(C)(O)[C@H](F)CN1Cc2cc(NC(=O)c3cnn4cccnc34)c(N3CCOCC3)cc2C1=O,dTM,[5],2 K
C=CC(=O)Nc1ccc(C(=O)Nc2[nH]nc3c2CN(C(=O)N[C@H](CN(C)C)c2ccccc2)C3(C)C)cc1,% of engagement,[6],-6.3%
CC[C@@H]1[C@H](F)C(=O)N[C@@H]1COc1nccc2cc(C(N)=O)c(OC)cc12 [ZIMLOVISERTIB],% of inhibition,[7]; at 0.01 µM,-2.2%
same,% of inhibition,[7]; at 0.04 µM,1.5%
same,% of inhibition,[7]; at 0.2 µM,-2.2%
same,% of inhibition,[7]; at 1 µM,2%
same,% of inhibition,[7]; at 5 µM,-1.4%
same,% of inhibition,[8],26.6%
same,% of inhibition,[9],34%
COc1cc(N(C)c2ccnc3ccc(C(F)(F)F)cc23)cc(OC)c1OC,% binding,[10],100%
same,% binding,[11],96%
same,% binding,[12],82%
same,% binding,[13],85%
CCC(=O)N1CCN(c2ccc(-n3c(=O)ccc4cnc5ccc(-c6cnc7ccccc7c6)cc5c43)cc2C(F)(F)F)CC1,% of control,[14],50%
Cc1cnc(Nc2ccc(F)cc2Cl)nc1-c1c[nH]c(C(=O)N[C@H](CO)c2cccc(Cl)c2)c1,Ki,[15],> 4 µM
